Counter-ions that a name gives are not always drawn. Like-named read-outs stand apart in the source and are kept apart here.
Target: glucan synthase (GS) prepared from Candida albicans MY1055 (Candida albicans, UniProt O13428)
Test: Glucan synthase inhibition (polymerization assay, 96-well)
Type: biochemical
How it was run: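 Partially purified glucan synthase from C. albicans MY1055 membranes incorporated 0.5 mM ³H-UDPG with 25 μM GTP-γ-S, HEPES pH 7.5, over 60 min at 22 °C. TCA-precipitated glucan was counted by scintillation. IC50 (ng/mL) came from sigmoidal fits of duplicate 3-fold dilution series.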

[1] = GS from C. albicans MY1055, 60 min incubation at 22° C., read-out: Candida Albicans GS IC50 (converted)

Sequence of glucan synthase (GS) prepared from Candida albicans MY1055 (O13428 1-1897): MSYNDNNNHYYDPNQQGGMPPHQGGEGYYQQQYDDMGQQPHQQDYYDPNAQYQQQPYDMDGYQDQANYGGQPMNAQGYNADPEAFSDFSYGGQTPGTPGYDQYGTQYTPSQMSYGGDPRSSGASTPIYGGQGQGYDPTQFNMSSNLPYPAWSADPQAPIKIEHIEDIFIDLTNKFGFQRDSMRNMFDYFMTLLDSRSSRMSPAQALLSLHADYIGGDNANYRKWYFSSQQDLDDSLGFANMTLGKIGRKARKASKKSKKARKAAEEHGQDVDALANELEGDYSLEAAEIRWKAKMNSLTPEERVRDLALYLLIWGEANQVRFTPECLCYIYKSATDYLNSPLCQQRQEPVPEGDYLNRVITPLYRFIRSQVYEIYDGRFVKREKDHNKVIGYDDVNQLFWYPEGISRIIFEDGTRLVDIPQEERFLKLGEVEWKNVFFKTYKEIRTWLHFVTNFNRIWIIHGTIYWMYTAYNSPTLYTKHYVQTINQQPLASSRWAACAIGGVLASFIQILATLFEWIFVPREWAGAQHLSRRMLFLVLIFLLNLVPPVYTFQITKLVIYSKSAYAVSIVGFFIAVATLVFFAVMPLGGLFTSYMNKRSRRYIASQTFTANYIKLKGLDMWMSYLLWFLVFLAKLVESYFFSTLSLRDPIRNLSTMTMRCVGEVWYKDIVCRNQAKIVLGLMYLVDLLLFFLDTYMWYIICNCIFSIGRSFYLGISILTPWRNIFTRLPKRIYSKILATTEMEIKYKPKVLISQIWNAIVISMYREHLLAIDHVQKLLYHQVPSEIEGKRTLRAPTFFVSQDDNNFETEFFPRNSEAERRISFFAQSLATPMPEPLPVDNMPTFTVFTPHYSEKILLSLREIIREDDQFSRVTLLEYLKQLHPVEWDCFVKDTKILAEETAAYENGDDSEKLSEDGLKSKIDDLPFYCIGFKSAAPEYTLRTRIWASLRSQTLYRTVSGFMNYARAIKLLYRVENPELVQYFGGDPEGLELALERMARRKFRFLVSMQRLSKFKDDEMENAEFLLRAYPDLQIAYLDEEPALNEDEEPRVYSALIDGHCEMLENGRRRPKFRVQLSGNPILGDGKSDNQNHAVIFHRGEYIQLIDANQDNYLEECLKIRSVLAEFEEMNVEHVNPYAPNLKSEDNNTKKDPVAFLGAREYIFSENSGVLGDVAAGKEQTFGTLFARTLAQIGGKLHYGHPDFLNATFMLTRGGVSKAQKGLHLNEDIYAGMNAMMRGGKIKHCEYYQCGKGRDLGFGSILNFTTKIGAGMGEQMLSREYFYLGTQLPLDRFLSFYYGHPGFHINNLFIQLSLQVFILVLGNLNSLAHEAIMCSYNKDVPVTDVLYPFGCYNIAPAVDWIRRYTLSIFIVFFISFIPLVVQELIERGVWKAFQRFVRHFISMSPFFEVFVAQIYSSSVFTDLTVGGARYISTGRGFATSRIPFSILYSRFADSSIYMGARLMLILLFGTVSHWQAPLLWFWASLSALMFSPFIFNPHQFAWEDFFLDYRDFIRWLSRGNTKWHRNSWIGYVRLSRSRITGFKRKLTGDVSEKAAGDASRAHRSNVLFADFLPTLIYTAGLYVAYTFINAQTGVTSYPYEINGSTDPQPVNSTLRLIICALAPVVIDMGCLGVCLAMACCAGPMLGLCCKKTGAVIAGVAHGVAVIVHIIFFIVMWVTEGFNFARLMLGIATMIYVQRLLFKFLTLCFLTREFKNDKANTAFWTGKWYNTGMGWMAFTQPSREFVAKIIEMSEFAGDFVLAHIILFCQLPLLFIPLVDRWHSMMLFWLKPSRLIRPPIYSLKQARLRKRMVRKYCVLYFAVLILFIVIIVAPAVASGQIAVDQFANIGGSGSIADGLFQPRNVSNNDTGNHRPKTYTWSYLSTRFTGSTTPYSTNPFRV

Row | IC50 [1] [nM] | SMILES | IC50 [nM]
1 | 29 | CCCNC(=O)c1ncnn1[C@@H]1C[C@@]23COC[C@](C)([C@@H]2CC[C@H]2C3=CC[C@@]3(C)[C@H](C(=O)O)[C@@](C)([C@H](C)C(C)C)CC[C@]23C)[C@H]1OC[C@@](C)(N)C(C)C [Example 105, (1S,4aR,6aS,7R,8R,10aR,10bR,12aR,14R,15R)-15-[[(2S)-2-amino-2,3-dimethylbutyl]oxy]-8-[(1R)-1,2-dimethylpropyl]-14-[5-[(propylamino)carbonyl]-1H-1,2,4-triazol-1-yl]-1,6,6a,7,8,9,10,10a,10b,11,12,12a-dodecahydro-1,6a,8,10a-tetramethyl-4H-1,4a-propano-2H-phenanthro[1,2-c]pyran-7-carboxylic acid] | –
2 | 17.2 | CC(C)[C@@H](C)[C@@]1(C)CC[C@]2(C)[C@H]3CC[C@@H]4[C@@]5(COC[C@@]4(C)[C@@H](OC[C@](C)(N)C(C)C)[C@H](n4nccn4)C5)C3=CC[C@@]2(C)[C@@H]1C(=O)O (single isomer, unassigned) [Example 288B] | –
3 | 6.84 | CCS(=O)(=O)c1ncnn1[C@@H]1C[C@@]23COC[C@](C)([C@@H]2CC[C@H]2C3=CC[C@@]3(C)[C@H](C(=O)O)[C@@](C)([C@H](C)C(C)C)CC[C@]23C)[C@H]1OC[C@](C)(N)C(C)C [Example 140, (1S,4aR,6aS,7R,8R,10aR,10bR,12aR,14R,15R)-15-[[(2R)-2-amino-2,3-dimethylbutyl]oxy]-8-[(1R)-1,2-dimethylpropyl]-14-[5-(ethylsulfonyl)-1H-1,2,4-triazol-1-yl]-1,6,6a,7,8,9,10,10a,10b,11,12,12a-dodecahydro-1,6a,8,10a-tetramethyl-4H-1,4a-propano-2H-phenanthro[1,2-c]pyran-7-carboxylic acid] | –
4 | 18 | CC(C)[C@@H](C)[C@@]1(C)CC[C@]2(C)[C@H]3CC[C@@H]4[C@@]5(COC[C@@]4(C)[C@@H](OC[C@](C)(N)C(C)C)[C@H](n4ncnc4N4CCOCC4)C5)C3=CC[C@@]2(C)[C@@H]1C(=O)O [Example 148, (1S,4aR,6aS,7R,8R,10aR,10bR,12aR,14R,15R)-15-[[(2R)-2-amino-2,3-dimethylbutyl]oxy]-8-[(1R)-1,2-dimethylpropyl]-14-[5-(4-morpholinyl)-1H-1,2,4-triazol-1-yl]-1,6,6a,7,8,9,10,10a,10b,11,12,12a-dodecahydro-1,6a,8,10a-tetramethyl-4H-1,4a-propano-2H-phenanthro[1,2-c]pyran-7-carboxylic acid] | –
5 | 4.31 | CC(C)[C@@H](C)[C@@]1(C)CC[C@]2(C)[C@H]3CC[C@@H]4[C@@]5(COC[C@@]4(C)[C@@H](OC[C@](C)(N)C(C)(C)C)[C@H](n4ncnc4C(N)=O)C5)C3=CC[C@@]2(C)[C@@H]1C(=O)O [Example 44, (1S,4aR,6aS,7R,8R,10aR,10bR,12aR,14R,15R)-14-[5-(aminocarbonyl)-1H-1,2,4-triazol-1-yl]-15-[[(2R)-2-amino-2,3,3-trimethylbutyl]oxy]-8-[(1R)-1,2-dimethylpropyl]-1,6,6a,7,8,9,10,10a,10b,11,12,12a-dodecahydro-1,6a,8,10a-tetramethyl-4H-1,4a-propano-2H-phenanthro[1,2-c]pyran-7-carboxylic acid] | –
6 | 15.3 | CC(C)[C@@H](C)[C@@]1(C)CC[C@]2(C)[C@H]3CC[C@@H]4[C@@]5(COC[C@@]4(C)[C@@H](OC[C@](C)(N)C(C)C)[C@H](n4ncnc4N)C5)C3=CC[C@@]2(C)[C@@H]1C(=O)O [Example 31, (1S,4aR,6aS,7R,8R,10aR,10bR,12aR,14R,15R)-15-[[(2R)-2-amino-2,3-dimethylbutyl]oxy]-14-(5-amino-1H-1,2,4-triazol-1-yl)-8-[(1R)-1,2-dimethylpropyl]-1,6,6a,7,8,9,10,10a,10b,11,12,12a-dodecahydro-1,6a,8,10a-tetramethyl-4H-1,4a-propano-2H-phenanthro[1,2-c]pyran-7-carboxylic acid] | –

More lines, now with the values behind:

Row | SMILES | IC50 [1] [nM] | IC50 [nM]
7 | CC(C)[C@@H](C)[C@@]1(C)CC[C@]2(C)[C@H]3CC[C@@H]4[C@@]5(COC[C@@]4(C)[C@@H](OC[C@](C)(N)C(C)C)[C@H](n4ncnc4-c4ccnc(-c6cccnc6)c4)C5)C3=CC[C@@]2(C)[C@@H]1C(=O)O [Example 272, (1S,4aR,6aS,7R,8R,10aR,10bR,12aR,14R,15R)-15-[[(2R)-2-amino-2,3-dimethylbutyl]oxy]-14-(5-[2,3′-bipyridin]-4-yl-1H-1,2,4-triazol-1-yl)-8-[(1R)-1,2-dimethylpropyl]-1,6,6a,7,8,9,10,10a,10b,11,12,12a-dodecahydro-1,6a,8,10a-tetramethyl-4H-1,4a-propano-2H-phenanthro[1,2-c]pyran-7-carboxylic acid] | 10.1 | –
8 | CC(C)[C@@H](C)[C@@]1(C)CC[C@]2(C)[C@H]3CC[C@@H]4[C@@]5(COC[C@@]4(C)[C@@H](OC[C@](C)(N)C(C)C)[C@H](n4ncnc4-c4ccc(N)cc4)C5)C3=CC[C@@]2(C)[C@@H]1C(=O)O [Example 200, (1S,4aR,6aS,7R,8R,10aR,10bR,12aR,14R,15R)-15-[[(2R)-2-amino-2,3-dimethylbutyl]oxy]-14-[5-(4-aminophenyl)-1H-1,2,4-triazol-1-yl]-8-[(1R)-1,2-dimethylpropyl]-1,6,6a,7,8,9,10,10a,10b,11,12,12a-dodecahydro-1,6a,8,10a-tetramethyl-4H-1,4a-propano-2H-phenanthro[1,2-c]pyran-7-carboxylic acid] | 8.22 | –
9 | CNC1(CO[C@H]2[C@H](n3cncn3)C[C@@]34COC[C@]2(C)[C@@H]3CC[C@H]2C4=CC[C@@]3(C)[C@H](C(=O)O)[C@@](C)([C@H](C)C(C)C)CC[C@]23C)CCCCC1 [Example 16, (1S,4aR,6aS,7R,8R,10aR,10bR,12aR,14R,15R)-8-[(1R)-1,2-dimethylpropyl]-15-[[1-(methylamino)cyclohexyl]methoxy]-14-(1H-1,2,4-triazol-1-yl)-1,6,6a,7,8,9,10,10a,10b,11,12,12a-dodecahydro-1,6a,8,10a-tetramethyl-4H-1,4a-propano-2H-phenanthro[1,2-c]pyran-7-carboxylic acid] | 33.1 | –
10 | CC(C)[C@@H](C)[C@@]1(C)CC[C@]2(C)[C@H]3CC[C@@H]4[C@@]5(COC[C@@]4(C)[C@@H](OC[C@](C)(C(C)C)N(C)C)[C@H](n4cnc(N)n4)C5)C3=CC[C@@]2(C)[C@@H]1C(=O)O [Example 27, (1S,4aR,6aS,7R,8R,10aR,10bR,12aR,14R,15R)-14-(3-amino-1H-1,2,4-triazol-1-yl)-15-[[(2S)-2-(dimethylamino)-2,3-dimethylbutyl]oxy]-8-[(1R)-1,2-dimethylpropyl]-1,6,6a,7,8,9,10,10a,10b,11,12,12a-dodecahydro-1,6a,8,10a-tetramethyl-4H-1,4a-propano-2H-phenanthro[1,2-c]pyran-7-carboxylic acid] | 16.1 | –
11 | CC(C)[C@@H](C)[C@@]1(C)CC[C@]2(C)[C@H]3CC[C@@H]4[C@@]5(COC[C@@]4(C)[C@@H](OC[C@](C)(N)C(C)(C)C)[C@H](n4ncnc4-c4ccc(CN(C)C)cc4)C5)C3=CC[C@@]2(C)[C@@H]1C(=O)O [Example 239, (1S,4aR,6aS,7R,8R,10aR,10bR,12aR,14R,15R)-15-[[(2R)-2-amino-2,3,3-trimethylbutyl]oxy]-14-[5-[4-[(dimethylamino)methyl]phenyl]-1H-1,2,4-triazol-1-yl]-8-[(1R)-1,2-dimethylpropyl]-1,6,6a,7,8,9,10,10a,10b,11,12,12a-dodecahydro-1,6a,8,10a-tetramethyl-4H-1,4a-propano-2H-phenanthro[1,2-c]pyran-7-carboxylic acid] | 0.127 | –
12 | CC(C)[C@@H](C)[C@@]1(C)CC[C@]2(C)[C@H]3CC[C@@H]4[C@@]5(COC[C@@]4(C)[C@@H](OC[C@](C)(N)C(C)(C)C)[C@H](n4ncnc4-c4ccc[n+](C)c4)C5)C3=CC[C@@]2(C)[C@@H]1C(=O)O [Example 264, (1S,4aR,6aS,7R,8R,10aR,10bR,12aR,14R,15R)-15-[[(2R)-2-amino-2,3,3-trimethylbutyl]oxy]-8-[(1R)-1,2-dimethylpropyl]-14-[5-(1-methyl-3-pyridiniumyl)-1H-1,2,4-triazol-1-yl]-1,6,6a,7,8,9,10,10a,10b,11,12,12a-dodecahydro-1,6a,8,10a-tetramethyl-4H-1,4a-propano-2H-phenanthro[1,2-c]pyran-7-carboxylic acid trifluoroacetate] | – | 0.403
13 | CC(C)[C@@H](C)[C@@]1(C)CC[C@]2(C)[C@H]3CC[C@@H]4[C@@]5(COC[C@@]4(C)[C@@H](OC[C@](C)(N)C(C)(C)C)[C@H](n4ncnc4S(N)(=O)=O)C5)C3=CC[C@@]2(C)[C@@H]1C(=O)O [Example 123C, (1S,4aR,6aS,7R,8R,10aR,10bR,12aR,14R,15R)-14-[5-(aminosulfonyl)-1H-1,2,4-triazol-1-yl]-15-[[(2R)-2-amino-2,3,3-trimethylbutyl]oxy]-8-[(1R)-1,2-dimethylpropyl]-1,6,6a,7,8,9,10,10a,10b,11,12,12a-dodecahydro-1,6a,8,10a-tetramethyl-4H-1,4a-propano-2H-phenanthro[1,2-c]pyran-7-carboxylic acid] | 5.46 | –
14 | CC(C)[C@@H](C)[C@@]1(C)CC[C@]2(C)[C@H]3CC[C@@H]4[C@@]5(COC[C@@]4(C)[C@@H](OC[C@](C)(N)C(C)(C)C)[C@H](n4ncnc4Br)C5)C3=CC[C@@]2(C)[C@@H]1C(=O)O [Example 11, (1S,4aR,6aS,7R,8R,10aR,10bR,12aR,14R,15R)-15-[[(2R)-2-amino-2,3,3-trimethylbutyl]oxy]-14-(5-bromo-1H-1,2,4-triazol-1-yl)-8-[(1R)-1,2-dimethylpropyl]-1,6,6a,7,8,9,10,10a,10b,11,12,12a-dodecahydro-1,6a,8,10a-tetramethyl-4H-1,4a-propano-2H-phenanthro[1,2-c]pyran-7-carboxylic acid] | 4.1 | –

Source: patent US8188085B2, “Antifungal agents” (Merck Sharp & Dohme Corp., priority 2008, dated 2012)
